Reference: patent US20240148711A1, “COMPOSITION COMPRISING BETA BLOCKER AND CHOLINESTERASE INHIBITOR FOR TREATMENT OF NEURODEGENERATIVE DISEASE” (DR. NOAH BIOTECH INC., priority 2022, published 2024)

How the values were obtained:
[1] = system: Immortalized human neural progenitor cell line (ReNcell VM); assay: Differentiation of neural progenitor cells into motor neurons (HB9 immunostaining / CellTag); format: cell-based; settings: compared to the control group
Method: Immortalized human neural progenitor cell line (ReNcell VM) as a neural progenitor cell that may differentiate into neurons and glial cells was treated with nebivolol alone, donepezil alone, and nebivolol+donepezil combination. Thereafter, immunostaining was performed using an antibody capable of selectively binding to motor neurons (anti-HB9 antibody) and a CellTag probe that stains whole cells. Thereafter, the HB9 positive signal and the value of CellTag were analyzed to determine the number of motor neurons among the total cells, thereby measuring the degree of differentiation of neural precursor cells into motor neurons.

[2] = system: microglia (BV2 cells); assay: NO generation in LPS-treated microglia (anti-inflammatory effect); format: cell-based; settings: BV2 cells treated with LPS and drug at the same time; compared to the LPS control group
Method: Microglia (BV2 cells) were treated with LPS to cause an inflammatory response and, at the same time, treated with nebivolol alone, donepezil alone, or nebivolol+donepezil combination to measure the concentration of generated NO.

[3] = system: neuroblasts (SH-SY5Y); assay: ROS generation after H2O2 oxidative stress (DCF fluorescence); format: cell-based; settings: compared to the control group
[4] = system: SOD1G93A transgenic mice; assay: Rotarod latency test in ALS animal model; format: in vivo; settings: oral once daily from 70 days of age for 70 days, edaravone 15 mg/kg, NDC-011 nebivolol 5 mg/kg+donepezil 3 mg/kg, compared to the normal control group
Method: SOD1G93A transgenic mice as ALS animal models were used to verify the in vivo efficacy of the nebivolol and donepezil complex. Edaravone (15 mg/kg) as a commercially available ALS treatment, or a nebivolol and donepezil complex (NDC-011, nebivolol 5 mg/kg+donepezil 3 mg/kg) according to the present invention was administered to mice from 70 days of age once daily. Each dose was orally administered for 70 days. The rotarod latency test was performed immediately before the start of drug administration to evaluate the motor ability of each animal, and, thereafter, the rotarod latency test was performed during the drug administration period at 7-day intervals to evaluate the motor ability of the ALS animals.

[5] = ReNcell VM, low concentration (0.01 μM) of nebivolol or donepezil alone

## OC(CNCC(O)C1CCc2cc(F)ccc2O1)C1CCc2cc(F)ccc2O1 (centres unmarked) [nebivolol, Nebivolol]
[1]; ReNcell VM under differentiation conditions
  HB-9 expression (motor neuron marker): significant increase in HB-9 expression
[1]; [5]
  HB-9 expression (motor neuron marker): not observed
[2]
  concentration of generated NO: significant reduction in NO
[3]
  amount of generated reactive oxygen species (ROS): no significant decrease

## COc1cc2c(cc1OC)C(=O)C(CC1CCN(Cc3ccccc3)CC1)C2 (centres unmarked) [donepezil, Donepezil]
[1]; [5]
  HB-9 expression (motor neuron marker): not observed
[2]
  concentration of generated NO: significant reduction in NO
[3]
  amount of generated reactive oxygen species (ROS): no significant decrease

## CC1=NN(c2ccccc2)C(=O)C1 [edaravone, Edaravone]
[4]
  age from which exercise capacity decreased (rotarod latency): 84 days
